Laboratory results reported in patent US20120270819A1, “USE OF COMPOUNDS WITH SGLT-1/SGLT-2 INHIBITOR ACTIVITY FOR PRODUCING MEDICAMENTS FOR TREATMENT OF BONE DISEASE” (SANOFI, priority 2009, published 2012).

Key:
[1] = test system: female Sprague-Dawley mature and young adult rats; assay: Biomechanical testing: right femur 3-point bending; format: in vivo, rat; details: ex vivo; for Femur 3-point bending AUC / Femur 3-point bending Modulus / Femur 3-point bending Peak Load / Femur 3-point bending Stiffness / Femur 3-point bending Toughness / Femur 3-point bending Ultimate Stress: mean
Method: (§1) Biomechanical testing was performed using an 858 Mini Bionix Servohydraulic Test System, Model 242.03. All data was collected using TestWorks® version 3.8A for TestStar™ software, version 4.0C.
(§2) At necropsy, all specimens were cleaned of excess tissue (not scraped) and individually wrapped in gauze soaked with saline, covered with plastic film and placed in an appropriately labelled plastic bag. Bone samples were retained frozen (ca −20° C.) until subjected to the following biomechanical evaluations:
For 3-point bending, the right femur was cleaned of soft tissue, especially at the diaphysis in the area of the span.
The right femur was tested to failure in three-point bending to determine the material properties of femoral cortical bone. The marked point on the anterior side served as the upper loading point for each femur and the actuator was set at a rate of 1 mm/sec until failure occurred. Load and displacement data were collected. Peak load was determined from the resulting load versus displacement curve and converted to ultimate stress using the radius, cross-sectional moment of inertia and the span. The work to failure was determined from the area under the curve (AUC) and toughness was calculated. Approximate midspan values for stiffness were recorded (defined as the slope of the linear/elastic region of the load versus displacement curve) and modulus was calculated using the moment of inertia obtained from the pQCT data.

[2] = test system: female Sprague-Dawley mature and young adult rats; assay: Biomechanical testing: L3, L4 vertebral compression; format: in vivo, rat; details: for AUC (work to failure), percent difference from Vehicle Control / Apparent Strength, percent difference from Vehicle Control / Modulus, percent difference from Vehicle Control / Peak Load, percent difference from Vehicle Control / Stiffness, percent difference from Vehicle Control / Toughness, percent difference from Vehicle Control / Yield Load, percent difference from Vehicle Control / Yield Stress, percent difference from Vehicle Control / AUC (work to failure) / Apparent Strength / Modulus / Peak Load / Stiffness / Toughness / Yield Load / Yield Stress: L3 + L4 vertebral bodies; for AUC (work to failure) / Apparent Strength / Modulus / Peak Load / Stiffness / Toughness / Yield Load / Yield Stress: mean
Method: as §1, §2
For compression testing, the vertebral body of the vertebrae was isolated by removing the vertebral arch and removing both inter-vertebral discs. The section obtained had two parallel cut surfaces and the trabecular bone exposed.
The L3 and L4 vertebral body were tested in compression to failure. The loading rate was set at 20 mm/min. Load and displacement data were collected and apparent strength and modulus were calculated using the peak load, stiffness, individual vertebral body height and cross sectional area from the pQCT scans. The work to failure was determined from the area under the curve (AUC) and toughness was calculated. Yield load was originally derived using a 0.2% off-set however a 0.1% off-set was considered more appropriate and yield stress was calculated. All data derived from the 0.2% off-set yield load was kept with the study file but not reported.

COc1ccc(Cc2c(OC3OC(CO)C(F)C(O)C3O)n[nH]c2C(F)(F)F)cc1 (centres unmarked) [Example 5 of formula II]
Femur 3-point bending AUC, percent difference from Vehicle Control ([1]; Mature Adults, 10 mg/kg/day): 13.4%
Femur 3-point bending Modulus, percent difference from Vehicle Control ([1]; Mature Adults, 10 mg/kg/day): −0.2%
Femur 3-point bending Peak Load, percent difference from Vehicle Control ([1]; Mature Adults, 10 mg/kg/day): 10.1%
Femur 3-point bending Stiffness, percent difference from Vehicle Control ([1]; Mature Adults, 10 mg/kg/day): 1.3%
Femur 3-point bending Toughness, percent difference from Vehicle Control ([1]; Mature Adults, 10 mg/kg/day): 10.5%
Femur 3-point bending Ultimate Stress, percent difference from Vehicle Control ([1]; Mature Adults, 10 mg/kg/day): 6.1%
Femur 3-point bending AUC ([1]; Mature Adults, 10 mg/kg/day): 64.1 N-mm
Femur 3-point bending Modulus ([1]; Mature Adults, 10 mg/kg/day): 6137.7 MPa
Femur 3-point bending Peak Load ([1]; Mature Adults, 10 mg/kg/day): 149.8 N
Femur 3-point bending Stiffness ([1]; Mature Adults, 10 mg/kg/day): 410.2 N/mm
Femur 3-point bending Toughness ([1]; Mature Adults, 10 mg/kg/day): 7.8 MPa
Femur 3-point bending Ultimate Stress ([1]; Mature Adults, 10 mg/kg/day): 200.5 MPa
Femur 3-point bending AUC, percent difference from Vehicle Control ([1]; Mature Adults, 50 mg/kg/day): 8.7%
Femur 3-point bending Modulus, percent difference from Vehicle Control ([1]; Mature Adults, 50 mg/kg/day): 1.2%
Femur 3-point bending Peak Load, percent difference from Vehicle Control ([1]; Mature Adults, 50 mg/kg/day): 4.5%
Femur 3-point bending Stiffness, percent difference from Vehicle Control ([1]; Mature Adults, 50 mg/kg/day): −0.9%
Femur 3-point bending Toughness, percent difference from Vehicle Control ([1]; Mature Adults, 50 mg/kg/day): 6.6%
Femur 3-point bending Ultimate Stress, percent difference from Vehicle Control ([1]; Mature Adults, 50 mg/kg/day): 3.4%
Femur 3-point bending AUC ([1]; Mature Adults, 50 mg/kg/day): 61.4 N-mm
Femur 3-point bending Modulus ([1]; Mature Adults, 50 mg/kg/day): 6222.5 MPa
Femur 3-point bending Peak Load ([1]; Mature Adults, 50 mg/kg/day): 142.1 N
Femur 3-point bending Stiffness ([1]; Mature Adults, 50 mg/kg/day): 401.4 N/mm
Femur 3-point bending Toughness ([1]; Mature Adults, 50 mg/kg/day): 7.5 MPa
Femur 3-point bending Ultimate Stress ([1]; Mature Adults, 50 mg/kg/day): 195.4 MPa
Femur 3-point bending AUC, percent difference from Vehicle Control ([1]; Young Adults, 10 mg/kg/day): 4.1%
Femur 3-point bending Modulus, percent difference from Vehicle Control ([1]; Young Adults, 10 mg/kg/day): 2.1%
Femur 3-point bending Peak Load, percent difference from Vehicle Control ([1]; Young Adults, 10 mg/kg/day): 0.9%
Femur 3-point bending Stiffness, percent difference from Vehicle Control ([1]; Young Adults, 10 mg/kg/day): −0.4%
Femur 3-point bending Toughness, percent difference from Vehicle Control ([1]; Young Adults, 10 mg/kg/day): 2.5%
Femur 3-point bending Ultimate Stress, percent difference from Vehicle Control ([1]; Young Adults, 10 mg/kg/day): 1.3%
Femur 3-point bending AUC ([1]; Young Adults, 10 mg/kg/day): 63.7 N-mm
Femur 3-point bending Modulus ([1]; Young Adults, 10 mg/kg/day): 5154.1 MPa
Femur 3-point bending Peak Load ([1]; Young Adults, 10 mg/kg/day): 97.9 N
Femur 3-point bending Stiffness ([1]; Young Adults, 10 mg/kg/day): 277.3 N/mm
Femur 3-point bending Toughness ([1]; Young Adults, 10 mg/kg/day): 8.7 MPa
Femur 3-point bending Ultimate Stress ([1]; Young Adults, 10 mg/kg/day): 155.8 MPa
Femur 3-point bending AUC, percent difference from Vehicle Control ([1]; Young Adults, 50 mg/kg/day): −19.9%
Femur 3-point bending Modulus, percent difference from Vehicle Control ([1]; Young Adults, 50 mg/kg/day): 4.0%
Femur 3-point bending Peak Load, percent difference from Vehicle Control ([1]; Young Adults, 50 mg/kg/day): −3.0%
Femur 3-point bending Stiffness, percent difference from Vehicle Control ([1]; Young Adults, 50 mg/kg/day): 2.0%
Femur 3-point bending Toughness, percent difference from Vehicle Control ([1]; Young Adults, 50 mg/kg/day): −19.2%
Femur 3-point bending Ultimate Stress, percent difference from Vehicle Control ([1]; Young Adults, 50 mg/kg/day): −2.3%
Femur 3-point bending AUC ([1]; Young Adults, 50 mg/kg/day): 49.0 N-mm
Femur 3-point bending Modulus ([1]; Young Adults, 50 mg/kg/day): 5249.6 MPa
Femur 3-point bending Peak Load ([1]; Young Adults, 50 mg/kg/day): 94.1 N
Femur 3-point bending Stiffness ([1]; Young Adults, 50 mg/kg/day): 283.9 N/mm
Femur 3-point bending Toughness ([1]; Young Adults, 50 mg/kg/day): 6.8 MPa
Femur 3-point bending Ultimate Stress ([1]; Young Adults, 50 mg/kg/day): 150.2 MPa
Strength parameters at the lumbar spine ([2]; 50 mg/kg/day): positively affected
AUC (work to failure), percent difference from Vehicle Control ([2]; mature adults, 10 mg/kg/day): 3.5%
Apparent Strength, percent difference from Vehicle Control ([2]; mature adults, 10 mg/kg/day): 3.4%
Modulus, percent difference from Vehicle Control ([2]; mature adults, 10 mg/kg/day): −2.0%
Peak Load, percent difference from Vehicle Control ([2]; mature adults, 10 mg/kg/day): 6.0%
Stiffness, percent difference from Vehicle Control ([2]; mature adults, 10 mg/kg/day): 0.9%
Toughness, percent difference from Vehicle Control ([2]; mature adults, 10 mg/kg/day): 2.0%
Yield Load, percent difference from Vehicle Control ([2]; mature adults, 10 mg/kg/day): 4.3%
Yield Stress, percent difference from Vehicle Control ([2]; mature adults, 10 mg/kg/day): 2.1%
AUC (work to failure) ([2]; mature adults, 10 mg/kg/day): 21.5 N-mm
Apparent Strength ([2]; mature adults, 10 mg/kg/day): 48.3 MPa
Modulus ([2]; mature adults, 10 mg/kg/day): 2102.6 MPa
Peak Load ([2]; mature adults, 10 mg/kg/day): 375.5 N
Stiffness ([2]; mature adults, 10 mg/kg/day): 5308.6 N/mm
Toughness ([2]; mature adults, 10 mg/kg/day): 0.9 MPa
Yield Load ([2]; mature adults, 10 mg/kg/day): 329.3 N
Yield Stress ([2]; mature adults, 10 mg/kg/day): 42.5 MPa
AUC (work to failure), percent difference from Vehicle Control ([2]; mature adults, 50 mg/kg/day): 22.1%
Apparent Strength, percent difference from Vehicle Control ([2]; mature adults, 50 mg/kg/day): 14.1%
Modulus, percent difference from Vehicle Control ([2]; mature adults, 50 mg/kg/day): 2.5%
Peak Load, percent difference from Vehicle Control ([2]; mature adults, 50 mg/kg/day): 21.6%
Stiffness, percent difference from Vehicle Control ([2]; mature adults, 50 mg/kg/day): 17.8%
Toughness, percent difference from Vehicle Control ([2]; mature adults, 50 mg/kg/day): 20.6%
Yield Load, percent difference from Vehicle Control ([2]; mature adults, 50 mg/kg/day): 16.6%
Yield Stress, percent difference from Vehicle Control ([2]; mature adults, 50 mg/kg/day): 9.2%
AUC (work to failure) ([2]; mature adults, 50 mg/kg/day): 25.4 N-mm
Apparent Strength ([2]; mature adults, 50 mg/kg/day): 53.3 MPa
Modulus ([2]; mature adults, 50 mg/kg/day): 2197.6 MPa
Peak Load ([2]; mature adults, 50 mg/kg/day): 430.6 N
Stiffness ([2]; mature adults, 50 mg/kg/day): 6194.6 N/mm
Toughness ([2]; mature adults, 50 mg/kg/day): 1.1 MPa
Yield Load ([2]; mature adults, 50 mg/kg/day): 368.0 N
Yield Stress ([2]; mature adults, 50 mg/kg/day): 45.5 MPa
AUC (work to failure), percent difference from Vehicle Control ([2]; young adults, 10 mg/kg/day): −9.8%
Apparent Strength, percent difference from Vehicle Control ([2]; young adults, 10 mg/kg/day): 3.5%
Modulus, percent difference from Vehicle Control ([2]; young adults, 10 mg/kg/day): 19.2%
Peak Load, percent difference from Vehicle Control ([2]; young adults, 10 mg/kg/day): 5.2%
Stiffness, percent difference from Vehicle Control ([2]; young adults, 10 mg/kg/day): 12.0%
Toughness, percent difference from Vehicle Control ([2]; young adults, 10 mg/kg/day): −19.6%
Yield Load, percent difference from Vehicle Control ([2]; young adults, 10 mg/kg/day): 8.3%
Yield Stress, percent difference from Vehicle Control ([2]; young adults, 10 mg/kg/day): 6.1%
AUC (work to failure) ([2]; young adults, 10 mg/kg/day): 14.4 N-mm
Apparent Strength ([2]; young adults, 10 mg/kg/day): 34.4 MPa
Modulus ([2]; young adults, 10 mg/kg/day): 1559.1 MPa
Peak Load ([2]; young adults, 10 mg/kg/day): 255.9 N
Stiffness ([2]; young adults, 10 mg/kg/day): 4009.8 N/mm
Toughness ([2]; young adults, 10 mg/kg/day): 0.7 MPa
Yield Load ([2]; young adults, 10 mg/kg/day): 222.5 N
Yield Stress ([2]; young adults, 10 mg/kg/day): 29.9 MPa
AUC (work to failure), percent difference from Vehicle Control ([2]; young adults, 50 mg/kg/day): 2.1%
Apparent Strength, percent difference from Vehicle Control ([2]; young adults, 50 mg/kg/day): 16.4%
Modulus, percent difference from Vehicle Control ([2]; young adults, 50 mg/kg/day): 23.3%
Peak Load, percent difference from Vehicle Control ([2]; young adults, 50 mg/kg/day): 10.2%
Stiffness, percent difference from Vehicle Control ([2]; young adults, 50 mg/kg/day): 10.3%
Toughness, percent difference from Vehicle Control ([2]; young adults, 50 mg/kg/day): 1.5%
Yield Load, percent difference from Vehicle Control ([2]; young adults, 50 mg/kg/day): 9.7%
Yield Stress, percent difference from Vehicle Control ([2]; young adults, 50 mg/kg/day): 15.8%
AUC (work to failure) ([2]; young adults, 50 mg/kg/day): 16.3 N-mm
Apparent Strength ([2]; young adults, 50 mg/kg/day): 38.7 MPa
Modulus ([2]; young adults, 50 mg/kg/day): 1613.3 MPa
Peak Load ([2]; young adults, 50 mg/kg/day): 268.0 N
Stiffness ([2]; young adults, 50 mg/kg/day): 3951.0 N/mm
Toughness ([2]; young adults, 50 mg/kg/day): 0.9 MPa
Yield Load ([2]; young adults, 50 mg/kg/day): 225.4 N
Yield Stress ([2]; young adults, 50 mg/kg/day): 32.7 MPa
